Source: US7550425B2, “Diuretic peptide conjugates” (Zealand Pharma A/S, priority 2000, dated 2009)

Test system: nociceptin-induced smooth muscle relaxation in mouse vas deferens
Assay: Mouse vas deferens assay: antagonism of nociceptin-induced relaxation (Schild pA2)
Protocol: The vas deferens from male NMRI albino mice weighing 30-40 g were placed in a SCHULER organ bath Type 809, Hugo Sachs Elektronik, Germany, and perfused with a 37° C., modified Krebs solution (NaCl 6,9 g/L, KCl 0.35 g/L, KH2PO4 0.16 g/L, NaHCO3 2.1 g/L, Glucose H2O 2.0 g/L, CaCl2 2.52 mL/L). The solution was gassed with carbogen (95% O2 and 5% CO2) throughout the experiment. The tissue was electrically stimulated through two silver electrodes directly in the organ bath using a HSE Stimulator I Type 215. Stimulation of the tissue was performed by applying a supramaximal voltage (15 Volts) in trains of 10 square pulses every 60 s, each of 1 ms duration with a frequency of […]. Concentration-response curves were performed by adding test substances that relax mouse vas deferens smooth muscles cumulatively to the organ baths. The test substances used in the assay were nociceptin in an isotonic saline solution, Compound 1 (as the trifluoroacetate in an isotonic saline solution), Compound 2 (as the trifluoroacetate in an isotonic saline solution), and the hexapeptide Ac-RYYRWK-NH2 (SEQ ID NO: 1) (as the trifluoroacetate in an isotonic saline solution).
The effects of Ac-RYYRWK-NH2 (SEQ ID NO: 1) and Compound 1 on nociceptin-induced relaxation in the mouse vas deferens assay were also tested. […] Using the Schild equation ^[7], the pA2 values which indicates affinity of a compound as an antagonist were calculated.

Substance: Ac-RYYRWKKKKKKK-NH2 [Compound 1, Ac-RYYRWKKKKKKK-NH2]
- pA2 value (Schild equation, antagonism of nociceptin-induced relaxation, n = 4): 9.5 (n = 4)
- fold more potent as an antagonist than Ac-RYYRWK-NH2 (nociceptin-induced smooth muscle relaxation, MVD assay): about 50 fold
